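In this assay, cells in 96-well plates receive the compound at five concentrations for 48 hours. Endpoints are linearly interpolated between the surrounding concentrations. GI50 marks 50% less growth. TGI: concentration producing complete growth inhibition.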
Assays:
Assay in all cases: NCI anticancer screen, dose series, 48 h; in the data active = GI50 below about 0.43 µM; inactive = the rest
M14 melanoma = tested on: M14 melanoma
SF-295 CNS = tested on: SF-295 CNS
COLO 205 colon = tested on: COLO 205 colon
SK-OV-3 ovarian = tested on: SK-OV-3 ovarian
MCF7 breast = tested on: MCF7 breast
SF-539 CNS = tested on: SF-539 CNS
IGROV1 ovarian = tested on: IGROV1 ovarian
CCRF-CEM leukemia = tested on: CCRF-CEM leukemia

CO/C(N)=C(\C#N)N=Cc1ccsc1
81 µM: TGI (CCRF-CEM leukemia)
> 100 µM: TGI (M14 melanoma) | TGI (SF-295 CNS) | TGI (COLO 205 colon) | TGI (SK-OV-3 ovarian) | TGI (MCF7 breast) | TGI (SF-539 CNS) | TGI (IGROV1 ovarian)

Cc1nn(C(=O)Cc2ccccc2)c2c1C(c1ccc(/C=C/c3ccccc3)cc1)SC(N)=N2 (configuration not stated)
> 100 µM: TGI (M14 melanoma) | TGI (SF-295 CNS) | TGI (COLO 205 colon) | TGI (SK-OV-3 ovarian) | TGI (MCF7 breast) | TGI (SF-539 CNS) | TGI (IGROV1 ovarian) | TGI (CCRF-CEM leukemia)

Cc1cnc2[nH]c(-c3cccc4ccccc34)cc(=O)c2c1
> 100 µM: TGI (M14 melanoma) | TGI (SF-295 CNS) | TGI (CCRF-CEM leukemia)
0.0952 µM: TGI (SK-OV-3 ovarian)
41.6 µM: TGI (MCF7 breast)
43.5 µM: TGI (IGROV1 ovarian)
0.00496 µM: TGI (COLO 205 colon)

C#CCN(C(=O)C(F)(F)F)C(/C=C\C(=O)OC)(C(=O)OCC)C(=O)OCC
> 100 µM: TGI (M14 melanoma) | TGI (SF-295 CNS) | TGI (SK-OV-3 ovarian) | TGI (MCF7 breast) | TGI (SF-539 CNS) | TGI (IGROV1 ovarian) | TGI (CCRF-CEM leukemia)

O=c1c2sc3ccccc3sc=2c(=O)c2c(Cl)c(Cl)c(Cl)c(Cl)c12
> 100 µM: TGI (M14 melanoma) | TGI (SF-295 CNS) | TGI (COLO 205 colon) | TGI (SK-OV-3 ovarian) | TGI (MCF7 breast) | TGI (IGROV1 ovarian) | TGI (CCRF-CEM leukemia)

Cc1cn([C@H]2C[C@@H](N3C(=O)c4ccccc4C3=O)[C@@H](CO[Si](C)(C)C(C)(C)C)O2)c(=O)[nH]c1=O
> 100 µM: TGI (M14 melanoma) | TGI (SF-295 CNS) | TGI (COLO 205 colon) | TGI (SK-OV-3 ovarian) | TGI (MCF7 breast) | TGI (SF-539 CNS) | TGI (IGROV1 ovarian) | TGI (CCRF-CEM leukemia)

CCOc1ccc(NC(=O)C(=O)C(/C(=N/N)C(=O)OC)c2nc3ccc([N+](=O)[O-])cc3[nH]c2=O)cc1 (configuration not stated)
> 100 µM: TGI (M14 melanoma) | TGI (SF-295 CNS) | TGI (COLO 205 colon) | TGI (SK-OV-3 ovarian) | TGI (MCF7 breast) | TGI (SF-539 CNS) | TGI (IGROV1 ovarian) | TGI (CCRF-CEM leukemia)

COC(=O)c1c(C)cccc1C1CN=NC12Cc1cc(C)c(C)cc1C2=O (configuration not stated)
> 100 µM: TGI (M14 melanoma) | TGI (SF-295 CNS) | TGI (COLO 205 colon) | TGI (SK-OV-3 ovarian) | TGI (MCF7 breast) | TGI (SF-539 CNS) | TGI (IGROV1 ovarian) | TGI (CCRF-CEM leukemia)

O=[N+]([O-])c1ccc(N/N=C\c2cc(Br)ccc2O)nc1
inactive: GI50 (M14 melanoma) 1.22 µM | GI50 (SF-295 CNS) 1.05 µM | GI50 (COLO 205 colon) 3.3 µM | GI50 (SK-OV-3 ovarian) 1.27 µM | GI50 (MCF7 breast) 0.489 µM | GI50 (SF-539 CNS) 0.918 µM | GI50 (IGROV1 ovarian) 1.05 µM
3.11 µM: TGI (SF-295 CNS)
4.87 µM: TGI (M14 melanoma)
active: GI50 (CCRF-CEM leukemia) 0.314 µM
12 µM: TGI (SK-OV-3 ovarian)
3.44 µM: TGI (IGROV1 ovarian)
4.16 µM: TGI (SF-539 CNS)
> 100 µM: TGI (COLO 205 colon) | TGI (MCF7 breast) | TGI (CCRF-CEM leukemia)

O=C(NC1CCCCC1)c1n[nH]nc1Cl
> 100 µM: TGI (M14 melanoma) | TGI (SF-295 CNS) | TGI (COLO 205 colon) | TGI (SK-OV-3 ovarian) | TGI (MCF7 breast) | TGI (SF-539 CNS) | TGI (IGROV1 ovarian) | TGI (CCRF-CEM leukemia)

CC(=O)Nc1nc2c(=O)c3ccccc3sc2s1
> 100 µM: TGI (M14 melanoma) | TGI (SF-295 CNS) | TGI (COLO 205 colon) | TGI (MCF7 breast) | TGI (SF-539 CNS) | TGI (IGROV1 ovarian) | TGI (CCRF-CEM leukemia)

CCN(CC)/[N+]([O-])=N/OS(=O)(=O)N(C)C
> 100 µM: TGI (M14 melanoma) | TGI (SF-295 CNS) | TGI (COLO 205 colon) | TGI (SK-OV-3 ovarian) | TGI (MCF7 breast) | TGI (SF-539 CNS) | TGI (IGROV1 ovarian) | TGI (CCRF-CEM leukemia)

Fc1ccc2c(c1)SC1=Nc3sc4cc(F)ccc4[n+]3CN12
74 µM: TGI (SF-295 CNS)
> 100 µM: TGI (M14 melanoma) | TGI (COLO 205 colon) | TGI (SK-OV-3 ovarian) | TGI (MCF7 breast)
28.3 µM: TGI (SF-539 CNS)
30.6 µM: TGI (IGROV1 ovarian)

CCCCCCC1OC23OC1CCC2C(O)CCC3O (configuration not stated)
> 100 µM: TGI (SF-295 CNS) | TGI (COLO 205 colon) | TGI (MCF7 breast) | TGI (SF-539 CNS) | TGI (IGROV1 ovarian)

CCOC(=O)c1c(C)n(-c2ccc(C)cc2)c(=O)c2ccccc2c(=O)c2c(=O)ccc(=O)c1=2
73.3 µM: TGI (SK-OV-3 ovarian)
43.7 µM: TGI (SF-539 CNS)
42.9 µM: TGI (M14 melanoma)
> 100 µM: TGI (IGROV1 ovarian) | TGI (CCRF-CEM leukemia)
63.9 µM: TGI (MCF7 breast)
36.1 µM: TGI (COLO 205 colon)

COc1cc2c(cc1OCCCOc1cc3c(cc1OC)C(=O)N1CCC[C@H]1C(=O)N3)N=C[C@@H]1CCCN1C2=O
27.3 µM: TGI (MCF7 breast)
12.1 µM: TGI (COLO 205 colon)
33.4 µM: TGI (IGROV1 ovarian)
46.5 µM: TGI (SF-295 CNS)
55.4 µM: TGI (M14 melanoma)

c1ccc(C(NC2=NCCO2)C2CC2)cc1 (configuration not stated)
> 100 µM: TGI (M14 melanoma) | TGI (SF-295 CNS) | TGI (COLO 205 colon) | TGI (SK-OV-3 ovarian) | TGI (MCF7 breast) | TGI (SF-539 CNS) | TGI (IGROV1 ovarian)

Cc1ccc2c(c1C)CC1(Cc3ccc(C)c(C)c3C1=O)C2=O (configuration not stated)
> 100 µM: TGI (M14 melanoma) | TGI (SF-295 CNS) | TGI (COLO 205 colon) | TGI (MCF7 breast) | TGI (SF-539 CNS) | TGI (IGROV1 ovarian) | TGI (CCRF-CEM leukemia)

COC(=O)C1(CCCCl)CCCN1C(=O)OC(C)(C)C (configuration not stated)
> 100 µM: TGI (SF-295 CNS) | TGI (COLO 205 colon) | TGI (SK-OV-3 ovarian) | TGI (MCF7 breast) | TGI (IGROV1 ovarian) | TGI (CCRF-CEM leukemia)

NC(Cc1cc(I)c(Oc2ccc(O)c(I)c2)c(I)c1)C(=O)O (configuration not stated)
> 100 µM: TGI (M14 melanoma) | TGI (SF-295 CNS) | TGI (COLO 205 colon) | TGI (SK-OV-3 ovarian) | TGI (MCF7 breast) | TGI (IGROV1 ovarian)

N/C(CCSCCSCC/C(N)=N\O)=N\O
> 100 µM: TGI (M14 melanoma) | TGI (COLO 205 colon) | TGI (SK-OV-3 ovarian) | TGI (MCF7 breast) | TGI (SF-539 CNS) | TGI (IGROV1 ovarian) | TGI (CCRF-CEM leukemia)

Clc1ccc(C(OCn2ccnc2)c2nc3ccccc3[nH]2)c(Cl)c1 (configuration not stated)
> 100 µM: TGI (M14 melanoma) | TGI (SF-295 CNS) | TGI (COLO 205 colon) | TGI (MCF7 breast) | TGI (SF-539 CNS) | TGI (IGROV1 ovarian) | TGI (CCRF-CEM leukemia)

CC(=O)n1c2ccc(Br)cc2c2nc3ccccc3nc21
> 100 µM: TGI (M14 melanoma) | TGI (SF-295 CNS) | TGI (COLO 205 colon) | TGI (MCF7 breast) | TGI (SF-539 CNS) | TGI (IGROV1 ovarian) | TGI (CCRF-CEM leukemia)

CC[C@@H]1CC[C@@H]2[C@H](CC[C@]3(C)[C@@H](O[N+](=O)[O-])CC[C@@H]23)[C@H]1C(C)=O
> 100 µM: TGI (M14 melanoma) | TGI (SF-295 CNS) | TGI (SF-539 CNS) | TGI (IGROV1 ovarian) | TGI (CCRF-CEM leukemia)
24.4 µM: TGI (COLO 205 colon)
83.1 µM: TGI (MCF7 breast)

COc1cc(CCN)c(OC)c(OC)c1
> 100 µM: TGI (M14 melanoma) | TGI (SF-295 CNS) | TGI (COLO 205 colon) | TGI (SK-OV-3 ovarian) | TGI (MCF7 breast) | TGI (IGROV1 ovarian) | TGI (CCRF-CEM leukemia)

COC(=O)/C(=N\N)C(C(=O)C(=O)Nc1cc(Cl)ccc1Cl)c1nc2ccc([N+](=O)[O-])cc2[nH]c1=O (configuration not stated)
> 100 µM: TGI (M14 melanoma) | TGI (SF-295 CNS) | TGI (SK-OV-3 ovarian) | TGI (MCF7 breast) | TGI (SF-539 CNS) | TGI (IGROV1 ovarian) | TGI (CCRF-CEM leukemia)

Reference: PubChem BioAssay (NCI)
